The values below come from patent US20150018384A1, “TREATMENT FOR HIGH CHOLESTEROL” (FibroGen, Inc., priority 2012, published 2015).

One data set relates to ApoE deficient mice. As to the kind of experiment: High cholesterol mouse model, ApoE deficient mice, 2 weeks. In kind it is in vivo. The note with it: Compound 60 mg/kg three times a week for two weeks, n=10/group, FIG. 22. The source says: Ten-week-old male apoE knockout mice (Jackson Laboratories, Bar Harbor, Me.) were fed a normal chow diet (0.02% cholesterol, 13.5% fat by weight; LabDiet). […] After 2 weeks of acclimatization, whole blood was collected for baseline measurement before administration of test reagents. […] The animals were sacrificed at end of study.
ApoE deficient mice as described in Example 10 were used to test the effect of various compounds on cholesterol levels. […] A statin compound (rosuvastatin) was also tested. Blood samples were collected at the end of the study and total cholesterol blood levels were tested. A group of 10 mice was sacrificed at the beginning of the study for a baseline total cholesterol measurement. […] Typically statins show mixed results in this model and are not very effective to reduce cholesterol in mice (Bea et al. 2003 Atherosclerosis 167:187-194).

Another data set relates to DIO mice. Briefly: High cholesterol mouse model, diet induced obesity (DIO) mice. An excerpt: Ten-week-old male apoE knockout mice (Jackson Laboratories, Bar Harbor, Me.) were fed a normal chow diet (0.02% cholesterol, 13.5% fat by weight; LabDiet). Ten-week-old male diet induced obese mice (DIO Mice, Jackson Laboratories, Bar Harbor, Me.) were fed a high fat diet (0.095% cholesterol, 60% fat by weight; ResearchDiets) starting at six-weeks-old. After 2 weeks of acclimatization, whole blood was collected for baseline measurement before administration of test reagents. All test reagents were administered orally by gavage needle three times a week for 2 weeks for the apoE mice, and three times a week for 4 weeks for the DIO mice. The animals were sacrificed at end of study. Whole blood was collected weekly in Heparin-tube by submandibular bleeding and isolated plasma was stored at −80° C. for measurement of total cholesterol.
DIO mice as described in Example 10 were used to test the effect of various compounds on cholesterol levels. Compound (60 mg/kg) or vehicle was administered to the mice (n=10/group) three times a week for four weeks. A statin compound (rosuvastatin) was also tested. Blood samples were collected at weekly and total cholesterol blood levels were tested.

For data set [1], the system named is cynomolgus monkeys. As to the kind of experiment: Cholesterol levels after repeated oral administration in monkey toxicity studies. It counts as in vivo, cynomolgus monkey. The settings on record: 28-Day study, daily oral dosing 1, 10 and 30 mg/kg, day 14 and 29. The procedure: During these studies monkeys were fasted prior to each blood collection. Plasma samples were then evaluated at pre-dose and at different time-points for levels of total cholesterol.

The subject of data set [2] is cynomolgus monkeys. As to the kind of experiment: Lipid panel in monkeys after single IV or PO dose. It counts as in vivo, cynomolgus monkey. The settings on record: 30 mg/kg IV or PO (3 each, 6 monkeys), 24 hrs post-dose, ±SD. As for the experimental part:
The same monkeys were administered the test compounds in sequence with a washout period between administration of each compound. Monkeys were fasted overnight prior to dosing and food was withheld during the first 4 hours after dosing and food was then allowed. Blood samples were collected at baseline prior to dosing, 4, 12, 24, 48 and 72 hrs after HIF-PHI administration. […] There were a total of 6 monkeys in each dose group, 3 that were dosed PO and 3 dosed IV.

A further data set has as its system healthy human subjects. The settings on record: 0.15 mg/kg or […] weekly for 4 weeks.
The subject of data set [3] is Cholesterol Biosynthesis Genes in the Mouse Liver. Briefly: Microarray expression of cholesterol biosynthesis genes in mouse liver. The settings on record: 10 mg/kg oral. It counts as in vivo. The method in brief:
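Mouse livers taken 4 h or 8 h post-treatment; RNA from paired animals pooled and hybridized to mouse 430A 2.0 arrays, GC-RMA processed, outlier arrays removed by PCA. Values are fold-change versus timepoint-matched vehicle controls from the same study; below 1.0 means reduced liver RNA.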

Description for healthy human subjects: Placebo was administered in the same regimen as a control (n=2 or n=1). Fasting blood samples for cholesterol analysis were collected from subjects in the morning on the day of dosing before compound or placebo was administered.

Take `CC(C)c1nc(N(C)S(C)(=O)=O)nc(-c2ccc(F)cc2)c1/C=C/[C@@H](O)C[C@@H](O)CC(=O)O` [rosuvastatin, reference compound]: in the data set on ApoE deficient mice, the “total cholesterol levels at the end of the study compared to baseline” value is “did not show a reduction in cholesterol”. For the same molecule, in the data set with DIO mice (Compound 60 mg/kg three times a week, n=10/group, FIG. 23), the “percent change from baseline in total cholesterol at two weeks compared to vehicle treated” value is “lower total cholesterol levels”.
Take `N#Cc1nc(C(=O)NCC(=O)O)c(O)c2c(Oc3ccc(Cl)cc3)cccc12` [Compound C]: the total cholesterol levels result with cynomolgus monkeys [1] is “dose-dependent decrease in cholesterol levels”. In addition, the total cholesterol levels entry in the data set with cynomolgus monkeys [1] (listed as compound C) is on record as “dose dependent decrease in total cholesterol”. Also, in the data set on cynomolgus monkeys [2], the “Cholesterol change from baseline” value was -11.8 ± 4.9 mg/dL, the “HDL change from baseline” value was 0.5 ± 6.9 mg/dL and the “TGs change from baseline” value was -10 ± 21 mg/dL. In addition, the “total cholesterol levels over the course of treatment” value in the data set on healthy human subjects is given as “decreased”.
Turning to `N#Cc1nc(C(=O)NCC(=O)O)c(O)c2ccn(Cc3ccccc3F)c12` [Compound G, {[7-Cyano-1-(2-fluoro-benzyl)-4-hydroxy-1H-pyrrolo[2,3-c]pyridine-5-carbonyl]-amino}-acetic acid], in data set [3] (4 h), the “3-hydroxy-3-methylglutaryl-Coenzyme A reductase (Hmgcr) RNA expression” value is given as 0.68 fold-change, the “3-hydroxy-3-methylglutaryl-Coenzyme A synthase 1 (Hmgcs1) RNA expression” value turned out to be 1.29 fold-change, the “7-dehydrocholesterol reductase (Dhcr7) RNA expression” value came out at 0.91 fold-change and the “NAD(P) dependent steroid dehydrogenase-like (Nsdhl) RNA expression” value is 1.46 fold-change. Besides, in data set [3] (4 h), the “acetyl-Coenzyme A acetyltransferase 2 (Acat2) RNA expression” value was 1.18 fold-change; the “cytochrome P450, family 51 (Cyp51) RNA expression” value amounted to 1.00 fold-change; the “farnesyl diphosphate farnesyl transferase 1 (Fdft1) RNA expression” value amounted to 1.15 fold-change; the “farnesyl diphosphate synthetase (Fdps) RNA expression” value came to 1.16 fold-change. Further, in data set [3] (4 h), the “isopentenyl-diphosphate delta isomerase (Idi1) RNA expression” value is 1.13 fold-change, the “lanosterol synthase (Lss) RNA expression” value amounted to 1.22 fold-change, the “mevalonate (diphospho) decarboxylase (Mvd) RNA expression” value turned out to be 1.03 fold-change and the “mevalonate kinase (Mvk) RNA expression” value is 0.98 fold-change. In data set [3] (4 h), the “phosphomevalonate kinase (Pmvk) RNA expression” value was determined as 0.95 fold-change; the “squalene epoxidase (Sqle) RNA expression” value stood at 1.50 fold-change; the “sterol-C4-methyl oxidase-like (Sc4mol) RNA expression” value is given as 0.87 fold-change; the “sterol-C5-desaturase (fungal ERG3, delta-5-desaturase) homolog (S. cerevisae) (Sc5d) RNA expression” value is reported as 0.70 fold-change. Further, in data set [3] (8 h), the “3-hydroxy-3-methylglutaryl-Coenzyme A reductase (Hmgcr) RNA expression” value came to 0.66 fold-change, the “3-hydroxy-3-methylglutaryl-Coenzyme A synthase 1 (Hmgcs1) RNA expression” value came to 0.82 fold-change, the “7-dehydrocholesterol reductase (Dhcr7) RNA expression” value was 1.07 fold-change and the “NAD(P) dependent steroid dehydrogenase-like (Nsdhl) RNA expression” value is 1.00 fold-change. In addition, in data set [3] (8 h), the “acetyl-Coenzyme A acetyltransferase 2 (Acat2) RNA expression” value is 0.67 fold-change; the “cytochrome P450, family 51 (Cyp51) RNA expression” value amounted to 0.62 fold-change; the “farnesyl diphosphate farnesyl transferase 1 (Fdft1) RNA expression” value is listed as 0.98 fold-change; the “farnesyl diphosphate synthetase (Fdps) RNA expression” value is 0.73 fold-change. Moreover, in data set [3] (8 h), the “isopentenyl-diphosphate delta isomerase (Idi1) RNA expression” value amounted to 0.94 fold-change, the “lanosterol synthase (Lss) RNA expression” value was 0.87 fold-change, the “mevalonate (diphospho) decarboxylase (Mvd) RNA expression” value stood at 1.03 fold-change and the “mevalonate kinase (Mvk) RNA expression” value is 0.89 fold-change. Besides, in data set [3] (8 h), the “phosphomevalonate kinase (Pmvk) RNA expression” value was 0.70 fold-change; the “squalene epoxidase (Sqle) RNA expression” value is 1.22 fold-change; the “sterol-C4-methyl oxidase-like (Sc4mol) RNA expression” value is on record as 0.58 fold-change; the “sterol-C5-desaturase (fungal ERG3, delta-5-desaturase) homolog (S. cerevisae) (Sc5d) RNA expression” value is 0.48 fold-change. In addition, in the data set with cynomolgus monkeys [2], the “Cholesterol change from baseline” value was -6.5 ± 10.4 mg/dL, the “HDL change from baseline” value amounted to 0.17 ± 5.4 mg/dL, the “LDL change from baseline” value was -8.7 ± 5.9 mg/dL and the “LDL/HDL ratio change from baseline” value is listed as −0.13 ± 0.08. Further, the “TGs change from baseline” value with cynomolgus monkeys [2] is -23 ± 8 mg/dL. In the data set with DIO mice (60 mg/kg three times a week for four weeks), the “body weights at the end of the study” value is reported as “lower body weights”.
